Data taken from US8242118B2, “Arylsulfonamide derivatives for use as CCR3 antagonists in the treatment of inflammatory and immunological disorders” (Axikin Pharmaceuticals Inc., priority 2001, dated 2012).

Columns and labels:
Human CCR3 = target: T1, Human CCR3 (Homo sapiens, UniProt P51677); test: Calcium mobilization assay, eotaxin-stimulated; format: cell-based; conditions: human CCR3-transformed K562 cells, 10 nM eotaxin; compounds of about 40 to 90% purity; read-out: Activity grade Ca2+ (IC50 class)
T1 construct: The cloned CCR3 cDNA was constructed with pcDNA3 vector and transfected into a IC562 cell line; expressed in transfected cells
T1 sequence (P51677 1-355): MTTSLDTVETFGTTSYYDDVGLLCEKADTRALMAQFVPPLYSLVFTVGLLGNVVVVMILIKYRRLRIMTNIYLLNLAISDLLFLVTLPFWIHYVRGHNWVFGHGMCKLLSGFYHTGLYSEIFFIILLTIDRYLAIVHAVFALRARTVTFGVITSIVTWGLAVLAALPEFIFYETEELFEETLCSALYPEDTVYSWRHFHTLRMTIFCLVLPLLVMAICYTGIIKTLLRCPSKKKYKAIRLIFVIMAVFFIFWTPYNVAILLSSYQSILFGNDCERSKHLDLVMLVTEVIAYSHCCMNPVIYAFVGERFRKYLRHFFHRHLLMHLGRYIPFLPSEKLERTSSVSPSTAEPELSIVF
Experimental: • Human CCR3-transformed K562 cells were used. The cloned CCR3 cDNA was constructed with pcDNA3 vector and transfected into a IC562 cell line. The human CCR3-transformed K562 cells were maintained in RPMI-1640 (Cat.#22400-089, Life Technologies) supplemented with 10% FCS (Cat.#A-1115-L, Hyclone), 55 μM 2-mercaptoethanol (Cat.#21985-023, Life Technologies), 1 mM sodium pyruvate (Cat.#11360-070, Life Technologies), 100 units/ml of penicillin G and 100 μg/ml of streptomycin (Cat.#15140-122, Life Technologies), and 0.4 mg/ml of Geneticin (Cat.#10131-035, Life Technologies)(hereinafter called “culture medium”). Before the receptor binding assay, cells were pretreated with 5 mM sodium butyrate (Cat.#193-01522, Wako)-containing the culture medium (2×10^5 cells/ml) for 20-24 hours to increase the expression of CCR3. (2) Receptor Binding Assay (RBA) • Butyrate-pretreated cells, suspended in binding buffer (25 mM HEPES pH 7.6, 1 mM CaCl2, 5 mM MgCl2, 0.5% BSA, 0.1% NaN3) at a cell density of 2×10^6 cells/ml, were added into 60 μl/well in the 96-well round bottom polypropylene plate (Cat.#3365, Costar). Compounds, diluted with the binding buffer (4-times higher concentration of the final concentration), were added into 30 μl/well in the polypropylene plate. [^125I]-labeled human eotaxin (Cat.#IM290, Amersham Pharmacia Biotech), diluted with the binding buffer at the concentration of 0.4 nM (final concentration; 0.1 nM), was added into 30 μl/well in the polypropylene plate. Total 120 μl/well of binding reaction mixture (60 μl/well of cell suspension, 30 μl/well of compound solution, and 30 μl/well of [^125I]-labeled eotaxin) were incubated in the polypropylene plate for 1 hour at room temperature after the incubation, 100 μl/well of the reaction mixture was transferred to a filtration plate (Cat.#MAFB-N0B, Millipore), and washed with the washing buffer (25 mM HEPES pH 7.6, 1 mM CaCl2, 5 mM MgCl2, 0.5% BSA, 0.1% NaN3, 0.5 M NaCl) twice. The 96-well filtration plate was pretreated with 100 μl/well of 0.5% polyethylenimine (Cat.#P-3143, Sigma) for 2-4 hours at room temperature and washed with the washing buffer twice before use. The non-specific binding was determined by parallel incubation in the presence of 500 nM of non-labeled eotaxin (Cat.#23209, Genzyme Techne). The radioactivities remained on the filter were measured by liquid scintillation counter (TopCount™, Packard) after an addition of 45 μl/well of scintillant (Microscint20, Cat.#6013621, Packard). The inhibition percent at each concentration of compound was calculated, and IC50 values were determined from the inhibition curve. [Determination of IC50 Values of Compounds in Calcium Mobilization Assay] (IC50 Ca2+) (1) Cell • Human CCR3-transformed K562 cells were used. The human CCR3-transformed K562 cells were maintained in RPMI-1640 supplemented with 10% FCS, 55 μM 2-mercaptoethanol (Cat.#21985-023, Life Technologies), 1 mM sodium pyruvate, 100 units/ml of penicillin G and 100 μg/ml of streptomycin and 0.4 mg/ml of Geneticin. Before the calcium mobilization assay, cells were pretreated with 5 mM sodium butyrate-containing the culture medium (2×10^5 cells/ml) for 20-24 hours to increase the expression of CCR3. (2) Calcium Mobilization Assay • Butyrate-pretreated cells were loaded with Fluo-3AM (Cat.#F-1242, Molecular Probes) in loading buffer (Hanks' solution Cat.#05906 Nissui, 20 mM HEPES pH 7.6, 0.1% BSA, 1 mM probenecid Cat.#P-8761 Sigma, 1 μM Fluo-3AM, 0.01% pluronic F-127 Cat.#P-6866 Molecular Probes) at a cell density of 1×10^7 cells/ml. Then, cells were washed with calcium assay buffer (Hanks' solution Cat.#05906 Nissui, 20 mM HEPES pH 7.6, 0.1% BSA, 1 mM Probenecid Cat.#P-8761 Sigma). The cell suspension (3.3×10^6 cells/ml) was added into 60 μl/well in the 96-well clear bottom black plate (Cat.#3904, Costar). Compounds, diluted (5-times concentration of the final concentration) with the calcium assay buffer, were added into 20 μl/well in the plate 10 minutes before assay. […]

Row | SMILES | melting point [°C] | IC50 (Human CCR3) [nM]
1 | COc1ccc(S(=O)(=O)N2CCNCC2)c(Oc2cc(C)cc(C)c2)c1.Cl [Example 1-49] | 125 | < 1000
2 | COc1cc(Oc2cc(Cl)cc(Cl)c2)c(S(=O)(=O)N2CCNCC2)cc1[N+](=O)[O-].Cl [Example 1-50] | 181 | < 1000
3 | Cc1cc(C)cc(Oc2cc(C)ccc2S(=O)(=O)N2CCNCC2)c1.Cl [Example 1-52] | 136 | < 1000
4 | Cl.Cl.O=[N+]([O-])c1ccc(Oc2cncc(Cl)c2)c(S(=O)(=O)N2CCNCC2)c1 [Example 1-55] | 231 | < 1000
5 | Cc1cc(C)cc(Oc2cccc(F)c2S(=O)(=O)N2CCNCC2)c1.Cl [Example 1-58] | 204 | < 1000
6 | Cl.O=S(=O)(c1c(F)cccc1Oc1cc(Cl)cc(Cl)c1)N1CCNCC1 [Example 1-59] | 306 | < 1000
7 | Cl.Nc1cccc(Oc2ccc([N+](=O)[O-])cc2S(=O)(=O)N2CCNCC2)c1 [Example 1-67] | 248 | < 1000
8 | Cl.O=[N+]([O-])c1ccc(Oc2cccc(-c3ccccc3)c2)c(S(=O)(=O)N2CCNCC2)c1 [Example 1-68] | 99 | < 1000
9 | Cc1cc(Oc2ccc([N+](=O)[O-])cc2S(=O)(=O)N2CCNCC2)cc(C)c1C.Cl [Example 1-69] | 248 | < 1000
10 | Cc1ccc(Oc2ccc([N+](=O)[O-])cc2S(=O)(=O)N2CCNCC2)cn1.Cl [Example 1-70] | 237 | < 1000
11 | Cc1cc(O)cc(Oc2ccc([N+](=O)[O-])cc2S(=O)(=O)N2CCNCC2)c1.Cl [Example 1-71] | 182 | < 1000
12 | Cl.O=[N+]([O-])c1ccc(Oc2ccc3c(c2)CCCC3)c(S(=O)(=O)N2CCNCC2)c1 [Example 1-72] | 168 | < 1000
13 | Cl.O=[N+]([O-])c1ccc(Oc2c(F)c(F)c(F)c(F)c2F)c(S(=O)(=O)N2CCNCC2)c1 [Example 1-73] | 297 | < 1000
14 | Cc1ccc([N+](=O)[O-])c(Oc2ccc([N+](=O)[O-])cc2S(=O)(=O)N2CCNCC2)c1.Cl [Example 1-75] | 215 | < 1000
15 | O=[N+]([O-])c1ccc(Oc2cc(Cl)cc(Cl)c2)c(S(=O)(=O)NC2CCNCC2)c1 [Example 1-78] | > 300 | < 1000
16 | Cc1cc(C)cc(Oc2ccc([N+](=O)[O-])cc2S(=O)(=O)N2C(C)CNCC2C)c1.Cl (centres unmarked) [Example 1-94] | > 300 | < 1000
17 | NCC1CCN(S(=O)(=O)c2cc([N+](=O)[O-])ccc2Oc2cc(Cl)cc(Cl)c2)CC1 [Example 1-97] | 148 to 151 | < 1000
18 | O=C(O)CCN1CCN(S(=O)(=O)c2cc([N+](=O)[O-])ccc2Oc2cc(Cl)cc(Cl)c2)CC1 [Example 1-98] | 200 to 201 | < 1000

Continued, values first:

Row | melting point [°C] | IC50 (Human CCR3) [nM] | SMILES
19 | 247 to 250 | < 1000 | Cl.N[C@@H]1CCN(S(=O)(=O)c2cc([N+](=O)[O-])ccc2Oc2cc(Cl)cc(Cl)c2)C1 [Example 1-99]
20 | 147 to 148 | < 1000 | O=[N+]([O-])c1ccc(Sc2cc(Cl)cc(Cl)c2)c(S(=O)(=O)N2CCN(CC3CCCO3)CC2)c1 (centres unmarked) [Example 2-2]
21 | 189 | < 1000 | NCCNS(=O)(=O)c1cc([N+](=O)[O-])ccc1Sc1cc(Cl)cc(Cl)c1 [Example 2-5]
22 | 156 to 158 | < 1000 | CCOC(=O)CCN1CCN(S(=O)(=O)c2cc([N+](=O)[O-])ccc2Sc2cc(Cl)cc(Cl)c2)CC1 [Example 2-6]
23 | 147 to 149 | < 1000 | NCC1CCN(S(=O)(=O)c2cc([N+](=O)[O-])ccc2Sc2cc(Cl)cc(Cl)c2)CC1 [Example 2-7]
24 | 205 to 207 | < 1000 | Cl.O=[N+]([O-])c1ccc(Sc2cc(Cl)cc(Cl)c2)c(S(=O)(=O)NCC2CCNCC2)c1 [Example 2-8]
25 | 131 to 133 | < 1000 | COCCCN1CCN(S(=O)(=O)c2cc([N+](=O)[O-])ccc2Sc2cc(Cl)cc(Cl)c2)CC1 [Example 2-9]
26 | 209 to 211 | < 1000 | O=C(O)CCN1CCN(S(=O)(=O)c2cc([N+](=O)[O-])ccc2Sc2cc(Cl)cc(Cl)c2)CC1 [Example 2-10]
27 | 274 | 1000 to 10000 | Cc1cc(C)c(Sc2ccc([N+](=O)[O-])cc2S(=O)(=O)N2CCNCC2)c(C)c1.Cl [Example 2-15]
28 | 229 to 231 | < 1000 | Cc1cccc(Sc2ccc([N+](=O)[O-])cc2S(=O)(=O)N2CCNCC2)c1.Cl [Example 2-16]
29 | 235 to 237 | < 1000 | Cl.O=[N+]([O-])c1ccc(Sc2cccc(Cl)c2)c(S(=O)(=O)N2CCNCC2)c1 [Example 2-17]
30 | 262 to 264 | < 1000 | Cl.O=[N+]([O-])c1ccc(Sc2cc(Cl)cc(Cl)c2)c(S(=O)(=O)N2CCNCC2)c1 [Example 2-18]
31 | 236 to 238 | < 1000 | Cl.O=[N+]([O-])c1ccc(Sc2cccc(F)c2)c(S(=O)(=O)N2CCNCC2)c1 [Example 2-19]
32 | 230 to 231 | < 1000 | Cl.O=[N+]([O-])c1ccc(Sc2cc(C(F)(F)F)cc(C(F)(F)F)c2)c(S(=O)(=O)N2CCNCC2)c1 [Example 2-20]
33 | 273 | 1000 to 10000 | Cl.O=[N+]([O-])c1ccc(Sc2ccc3ccccc3c2)c(S(=O)(=O)N2CCNCC2)c1 [Example 2-21]
34 | 143 to 144 | < 1000 | Cc1cc(C)cc(Sc2ccc([N+](=O)[O-])cc2S(=O)(=O)N2CCN(CC3CCCO3)CC2)c1 (centres unmarked) [Example 4-28]
35 | 98 to 99 | < 1000 | CCN(CC)CCN1CCN(S(=O)(=O)c2cc([N+](=O)[O-])ccc2Oc2cc(Cl)cc(Cl)c2)CC1 [Example 4-30]
36 | 138 to 140 | < 1000 | CN(C)CCN1CCN(S(=O)(=O)c2cc([N+](=O)[O-])ccc2Oc2cc(Cl)cc(Cl)c2)CC1 [Example 4-31]
37 | 167 to 169 | < 1000 | CN1CCC(N2CCN(S(=O)(=O)c3cc([N+](=O)[O-])ccc3Oc3cc(Cl)cc(Cl)c3)CC2)CC1 [Example 4-32]
